Reference: patent publication US20030113815A1, “Canine peroxisome proliferator activated receptor gamma” (Pfizer Inc., priority 2001, published 2003)

Tested on: TNF-α expression in canine DH82 cells
Experiment: Effect of PPARγ agonist on TNF-α mRNA levels (Q-PCR) in canine DH82 cells
Type: cell-based
Conditions: two hours, normalized to GAPDH
Protocol: Canine DH82 cells (ATCC No. CRL-10389) were cultured in RPMI 1640 medium containing 2 mM L-glutamine, 25 mM Hepes, 10% fetal bovine serum (FBS) and 1× antimycotic at 37° C., 95% humidity, and 5% CO2. Cells were treated with 10 nM PMA (Sigma-Aldrich, St. Louis, Mo.), PMA (10 nM) plus darglitazone (10 uM), and darglitazone (10 μM), respectively for two hours. After treatment, cell RNA lysis buffer was added to the cells. Samples were loaded into MagNa Pure™ machine (F. Hoffmann-La Roche, Basel, Switzerland). MagNa Pure LC™ RNA isolation Kit II (F. Hoffmann-La Roche) was used for isolation of total RNA from culture cells. First strand cDNA synthesis kit for RT-PCR (F. Hoffmann-La Roche) was used to synthesize cDNA. Samples were incubated at 25° C. for 10 minutes and then at 42° C. for 60 minutes, denatured at 90° C. for 5 minutes and cooled to 4° C. for 1-2 hr or at −20° C. for longer periods. Quantification PCR (Q-PCR) was performed using the Lightcycler Faster DNA Master SYBR Green 1™ kit (F. Hoffmann-La Roche) using canine TNF-α primers (forward primer: 5′ […], reverse primer: 5′ […]). […] For quantification, melting points were measured every 0.2° C. from 60° C. to 99° C. using fluorescence detection. […]

Compound: Cc1oc(-c2ccccc2)nc1CCC(=O)c1ccc(CC2SC(=O)NC2=O)cc1 (centres unmarked) [darglitazone]
- reduction of TNF-α expression in PMA stimulated cells (PMA 10 nM plus darglitazone 10 uM, FIG. 2B): about 15%
- reduction of TNF-α expression from the basal level (unstimulated, darglitazone 10 μM, control basal level = 100%, FIG. 2A): about 40%
